# Read-outs that look alike come from different tables or passages of the source.
# Assays:
# [1] = molecular target: human 5-HT2A (h5-HT2A) receptor (Homo sapiens (Human), UniProt P28223); assay: FLIPR calcium assay, human 5-HT2A receptor, agonist mode; type: cell-based
# Description: I. Assessment of the Activated Effect of Exemplary Compounds of Formula I Targeting on Human 5-HT2A (h5-HT2A) Receptor Under Agonist Mode:
# 1. Culture the cells in cell culture medium (DMEM containing 10% FBS, 1× penicillin-streptomycin 300 μg/ml G418 and 100 μg/ml hygromycin B) at 37° C., 5% (v/v) CO2.
# 2. One day before the assays, detach the cell using TrypLE™ Express and count cells using cell counter.
# 3. Seed 20000 cells/well in 30 μl/well culture medium to a 384-well cell plate and incubate the cells overnight at 37° C., 5% (v/v) CO2.
# 4. On the assay day, prepare 2×dye solution following the manual of the FLIPR® Calcium 6 Assay Kit: i. Dilute the dye with assay buffer(20 mM HEPES in 1× HBSS, PH7.4); ii. Add probenecid to the final concentration of 5 mM; iii. Vortex vigorously for 1-2 minutes.
# 5. Medium from cell plate by flicking the cell plate on towel papers.
# 6. Add 10 μl of assay buffer and 10 μl of 2×dye solution to each well of the cell plate.
# 7. Put the cell plate on plate shaker, agitate the plate at 600 rpm for 2 minutes. Incubate the plate at 37° C. for 2 hours followed by additional 15-minute incubation at 25° C.
# 8. Prepare 3×compound in assay buffer: a. Dilute reference compounds to required concentration with DMSO. Add the compounds to a 384-well compound plate; b. Perform serial dilutions; c. Add 10 mM test compounds to the compound plate, perform 3-fold serial dilutions. d. […] Add 20 μl/well assay buffer to the compound plate; f. Mix the plate on plate shaker for 2 mins;
# i. The normalized fluorescence reading (RFU) is calculated as shown follow, while Fmax and Fmin stand for maximum and minimum of calcium signal during defined time window: RFU=Fmax−Fmin
# ii. Calculate the percentage activation by using following equation: […]
# iii. Calculate EC50 by fitting % activation against log of compound concentrations with Hill equation using XLfit.
# human 5-HT2A receptor = human 5-HT2A receptor (Homo sapiens (Human), UniProt P28223); assay: Radioligand ([3H]-ketanserin) binding assay on human 5-HT2A receptor
# Description: i. Prepare the assay buffer following the table below;
# ii. Preparation of 8 doses of reference and exemplary test compounds starting from 10 mM stock solution as requested by 5-fold serial dilutions with 100%;
# iii. […] a. Add 50 μl/well of 0.5% (v/v) PEI to UniFilter-96 GF/B plates. Seal the plates and incubate at 4° C. for 3 hrs; b. After incubation, wash the plates 3 times with ice-cold wash buffer (50 mM Tris, pH7.4);
# iv. Preparation of assay plates: a. Dilute cell membrane with assay buffer and add 330 μl/well to 96 round deep well plates to reach a concentration of 20 μg/well; b. Prepare 8 concentrations of reference or exemplary test compounds and add 110 μl/well to 96 round deep well plates; c. Dilute [3H]-ketanserin with assay buffer to 5 nM (5× final concentration) and add 110 μl/well to 96 round deep well plates.
# v. Centrifuge the plate at 1000 rpm for 30 secs and then agitate at 600 rpm, R.T. for 5 min.
# vi. Seal the plates and incubate the plate at 27° C. for 90 min.
# vii. Stop the incubation by vacuum filtration onto GF/B filter plates followed by 4 times washing with ice-cold wash buffer (50 mM Tris, pH7.4).
# ix. Seal the filter plates and add 40 μl/well of scintillation cocktail.
# x. Read the plate by using a Microbeta2 microplate counter.
# For reference and exemplary test compounds, the results are expressed as % Inhibition, using the normalization equation: N=100−100×(U−C2)/(C1−C2), where U is the unknown value, C1 is the average of high controls, and C2 is the average of low controls. The IC50 is determined by fitting percentage of inhibition as a function of compound concentrations with Hill equation using XLfit.
# [2] = Human liver microsomes stability with NADPH; details: for Remaining Percentage (%) after 60 min, Human: human liver microsomes, with NADPH, 2 μM; for half-life at 2 μM / microsomal CLint at 2 μM: human, microsomes
# Description: (§1) The objective of this study was to estimate in vitro metabolic stability of exemplary compounds in pooled human, male rat and male mouse liver microsomes. The concentrations of exemplary compounds in reaction systems were evaluated by LC-MS/MS for estimating the stability in pooled human, male rat and male mouse liver microsomes. The in vitro intrinsic clearances of test compounds were determined as well.
# (§2) A master solution in the “Incubation Plate” containing phosphate buffer, ultra-pure H2O, MgCl2 solution and liver microsomes was made according to Table 3. The mixture was pre-warmed at 37° C. water bath for 5 minutes.
# (§3) 40 μL of 10 mM NADPH solution was added to each well. The final concentration of NADPH was 1 mM. The negative control samples were prepared by replacing NADPH with 40 μL of ultra-pure H2O. Samples were prepared in duplicate. Negative controls were prepared in singlet.
# (§4) The reaction was started with the addition of 4 μL of 200 μM exemplary test compounds or control compounds to each master solution to get the final concentration of 2 μM. This study was performed in duplicate.
# (§5) Aliquots of 50 μL were taken from the reaction solution at 0, 15, 30, 45 and 60 minutes. The reaction solutions were stopped by the addition of 4 volumes of cold methanol with IS (100 nM alprazolam, 200 nM imipramine, 200 nM labetalol and 2 μM ketoprofen). Samples were centrifuged at 3,220 g for 40 minutes. Aliquot of 90 μL of the supernatant was mixed with 90 μL of ultra-pure H2O and then was used for LC-MS/MS analysis.
# (§6) LC/MS analysis was performed for all samples from this study using a Shimadzu liquid chromatograph separation system equipped with degasser DGU-20A5R; solvent delivery unit LC-30AD; system controller SIL-30AC; column oven CTO-30A; CTC Analytics HTC PAL System. Mass spectrometric analysis was performed using an Triple Quad™ 5500 instrument.
# (§7) All calculations were carried out using Microsoft Excel. Peak areas were determined from extracted ion chromatograms. The slope value, k, was determined by linear regression of the natural logarithm of the remaining percentage of the parent drug vs. incubation time curve.
# (§8) Conversion of the in vitro t1/2 (min) into the in vitro intrinsic clearance (in vitro CLint, in μL/min/mg proteins) was done using the following equation (mean of duplicate determinations): […]
# [3] = Rat liver microsomes stability with NADPH; details: for half-life at 2 μM / microsomal CLint at 2 μM: male, rat, microsomes; for Remaining Percentage (%) after 60 min, Rat: rat liver microsomes, with NADPH, 2 μM
# Description: as §1, §2, §3, §4, §5, §6, §7, §8
# [4] = Mouse liver microsomes stability with NADPH; details: for half-life at 2 μM / microsomal CLint at 2 μM: male, mouse, microsomes; for Remaining Percentage (%) after 60 min, Mouse: mouse liver microsomes, with NADPH, 2 μM
# Description: as §1, §2, §3, §4, §5, §6, §7, §8
smiles,measurement,setting,value
"Oc1cccc2[nH]cc(C[C@H]3CCCN3)c12 [Compound I-3, (R)-3-(pyrrolidin-2-ylmethyl)-1H-indol-4-ol]",EC50,[1],< 1000 nM
"[2H]C([2H])(c1c[nH]c2cccc(F)c12)[C@H]1CCCN1C([2H])([2H])[2H] [Compound I-37, (R)-4-fluoro-3-((1-(methyl-d3)pyrrolidin-2-yl)methyl-d2)-1H-indole]",EC50,[1],< 1000 nM
same,IC50,human 5-HT2A receptor,500 to 5000 nM
same,"Remaining Percentage (%) after 60 min, Human",[2],31.93%
same,half-life at 2 μM,[2],36.4 min
same,microsomal CLint at 2 μM,[2],38.1 µL/min/mg
same,half-life at 2 μM,[3],29.8 min
same,microsomal CLint at 2 μM,[3],46.5 µL/min/mg
same,"Remaining Percentage (%) after 60 min, Rat",[3],24.82%
same,half-life at 2 μM,[4],53.7 min
same,microsomal CLint at 2 μM,[4],25.8 µL/min/mg
same,"Remaining Percentage (%) after 60 min, Mouse",[4],46.10%
"[2H]C([2H])(c1c[nH]c2cccc(Cl)c12)[C@H]1CCCN1C([2H])([2H])[2H] [Compound I-38, (R)-4-chloro-3-((1-(methyl-d3)pyrrolidin-2-yl)methyl-d2)-1H-indole]",EC50,[1],> 10000 nM
same,IC50,human 5-HT2A receptor,< 500 nM
"[2H]C([2H])([2H])N1CCC[C@@H]1Cc1c[nH]c2cccc(F)c12 [Compound I-40, (R)-4-fluoro-3-((1-(methyl-d3)pyrrolidin-2-yl)methyl)-1H-indole]",EC50,[1],< 1000 nM
same,IC50,human 5-HT2A receptor,< 500 nM
same,"Remaining Percentage (%) after 60 min, Human",[2],35.69%
same,half-life at 2 μM,[2],40.4 min
same,microsomal CLint at 2 μM,[2],34.5 µL/min/mg
same,half-life at 2 μM,[3],54.3 min
same,microsomal CLint at 2 μM,[3],25.5 µL/min/mg
same,"Remaining Percentage (%) after 60 min, Rat",[3],46.51%
same,half-life at 2 μM,[4],63 min
same,microsomal CLint at 2 μM,[4],22 µL/min/mg
same,"Remaining Percentage (%) after 60 min, Mouse",[4],51.70%
"[2H]C([2H])(c1c[nH]c2cccc(F)c12)[C@H]1CCCN1 [Compound I-41, (R)-4-fluoro-3-(pyrrolidin-2-ylmethyl-d2)-1H-indole]",EC50,[1],1000 to 10000 nM
same,IC50,human 5-HT2A receptor,500 to 5000 nM
"[2H]C([2H])(c1c[nH]c2cccc(F)c12)[C@@H]1CCCN1C([2H])([2H])[2H] [Compound I-42, (S)-4-fluoro-3-((1-(methyl-d3)pyrrolidin-2-yl)methyl-d2)-1H-indole]",EC50,[1],> 10000 nM
same,IC50,human 5-HT2A receptor,> 5000 nM
"[2H]C([2H])(c1c[nH]c2cccc(OCc3ccccc3)c12)[C@H]1CCCN1C([2H])([2H])[2H] [Compound I-43, (R)-4-(benzyloxy)-3-((1-(methyl-d3)pyrrolidin-2-yl)methyl-d2)-1H-indole]",EC50,[1],> 10000 nM
"[2H]C([2H])([2H])N1CCC[C@@H]1Cc1c[nH]c2cccc(OCc3ccccc3)c12 [Compound I-45, (R)-4-(benzyloxy)-3-((1-(methyl-d3)pyrrolidin-2-yl)methyl)-1H-indole]",EC50,[1],> 10000 nM
"CN1CCC[C@@H]1Cc1c[nH]c2cccc(OCc3ccccc3)c12 [Compound I-46, (R)-4-(benzyloxy)-3-((1-methylpyrrolidin-2-yl)methyl)-1H-indole]",EC50,[1],> 10000 nM
"CN1CCC[C@@H]1Cc1c[nH]c2cccc(O)c12 [Compound I-47, (R)-3-((1-methylpyrrolidin-2-yl)methyl)-1H-indol-4-ol]",EC50,[1],< 1000 nM
"[2H]C([2H])([2H])N1CCC[C@@H]1Cc1c[nH]c2cccc(OC(=O)CCCCCCC/C=C\C/C=C\CCCCC)c12 [Compound I-48, 3-(((R)-1-(methyl-d3)pyrrolidin-2-yl)methyl)-1H-indol-4-yl (9Z,12Z)-octadeca-9,12-dienoate]",EC50,"[1]; read-out: h5-HT2A EC50, FLIPR, agonist mode",1000 to 10000 nM
same,IC50,"human 5-HT2A receptor; read-out: h5-HT2A IC50, [3H]-ketanserin competition binding",< 500 nM
same,"Remaining Percentage (%) after 60 min, Human",[2],34.38%
same,half-life at 2 μM,[2],73.4 min
same,microsomal CLint at 2 μM,[2],18.9 µL/min/mg
same,half-life at 2 μM,[3],38.9 min
same,microsomal CLint at 2 μM,[3],35.6 µL/min/mg
same,"Remaining Percentage (%) after 60 min, Rat",[3],41.86%
same,half-life at 2 μM,[4],17.3 min
same,microsomal CLint at 2 μM,[4],80 µL/min/mg
same,"Remaining Percentage (%) after 60 min, Mouse",[4],9.06%
"[2H]C([2H])(c1c[nH]c2cccc(OC(=O)CCCCCCC/C=C\C/C=C\CCCCC)c12)[C@H]1CCCN1C([2H])([2H])[2H] [Compound I-49, 3-(((R)-1-(methyl-d3)pyrrolidin-2-yl)methyl-d2)-1H-indol-4-yl (9Z,12Z)-octadeca-9,12-dienoate]",EC50,"[1]; FLIPR, agonist mode, read-out: h5-HT2A EC50",1000 to 10000 nM
same,IC50,"human 5-HT2A receptor; [3H]-ketanserin competition binding, read-out: h5-HT2A IC50",< 500 nM
same,"Remaining Percentage (%) after 60 min, Human",[2],86.81%
same,half-life at 2 μM,[2],294 min
same,microsomal CLint at 2 μM,[2],4.72 µL/min/mg
same,half-life at 2 μM,[3],48.4 min
same,microsomal CLint at 2 μM,[3],28.6 µL/min/mg
same,"Remaining Percentage (%) after 60 min, Rat",[3],42.38%
same,half-life at 2 μM,[4],20.8 min
same,microsomal CLint at 2 μM,[4],66.5 µL/min/mg
same,"Remaining Percentage (%) after 60 min, Mouse",[4],13.60%
"[2H]C([2H])(c1c[nH]c2cccc(O)c12)[C@@H]1CCCN1 [Compound I-51, (S)-3-(pyrrolidin-2-ylmethyl-d2)-1H-indol-4-ol]",EC50,[1],< 1000 nM
"[2H]C([2H])([2H])N1CCC[C@H]1Cc1c[nH]c2cccc(OCc3ccccc3)c12 [Compound I-52, (S)-4-(benzyloxy)-3-((1-(methyl-d3)pyrrolidin-2-yl)methyl)-1H-indole]",EC50,[1],> 10000 nM
"[2H]C([2H])([2H])N1CCC[C@H]1Cc1c[nH]c2cccc(O)c12 [Compound I-53, (S)-3-((1-(methyl-d3)pyrrolidin-2-yl)methyl)-1H-indol-4-ol]",EC50,[1],1000 to 10000 nM
same,IC50,human 5-HT2A receptor,> 5000 nM
"[2H]C([2H])(c1c[nH]c2cccc(OP(=O)(O)O)c12)[C@H]1CCCN1C([2H])([2H])[2H] [Compound I-54, (R)-3-((1-(methyl-d3)pyrrolidin-2-yl)methyl-d2)-1H-indol-4-yl dihydrogen phosphate]",EC50,[1],1000 to 10000 nM
"CN(C)CCc1c[nH]c2cccc(O)c12 [Psilocin, 4-hydroxy-N,N-dimethyltryptamine, reference compound]","Remaining Percentage (%) after 60 min, Human",[2],70.16%
same,"Remaining Percentage (%) after 60 min, Rat",[3],62.68%
same,"Remaining Percentage (%) after 60 min, Mouse",[4],96.89%

# Reference: patent publication US11453689B2, “3-pyrrolidine-indole derivatives as serotonergic psychedelic agents for the treatment of CNS disorders” (Mindset Pharma Inc., priority 2020, dated 2022)
